In patent publication US8536214B2, “Indane derivatives as AMPA receptor modulators” (priority 2008, dated 2013) one finds EC50 data, which are given here for one compound.

The test deals with T1, AMPA (GluR1) receptor (Homo sapiens, UniProt P42261).
T1 construct: expressed in transfected cells; host or cells: HEK cells (HEK.GluR1(i)), kept under hygromycin selection
As to the kind of experiment: Ca2+ influx fluorescence assay (FLEXstation, Fluo-3). The test is classed as cell-based. The following applies: HEK.GluR1(i) cells, glutamate +/- test compound, Ca2+ influx measured with fluo3; read-out: EC50, positive modulation of the AMPA receptor. The source says:
The compounds in this invention may be tested using a biological assay which measures Ca^2+ influx mediated through positive modulation of the AMPA (GluR1) receptor using standard techniques in the art such as, but not limited to, a FLEXstation (manufactured by Molecular Devices, Sunnyvale, Calif.). An optical readout using fluorescent probes is employed to measure ion channel dependent changes in intracellular ion concentration or membrane potential. The assay utilises the Ca^2+ conductance of functional homomeric GluR1(i) AMPA receptors to generate glutamate-dependent Ca^2+ responses. Influx of Ca^2+ through the ion channel is measured indirectly through an increase in intracellular Ca^2+ levels using the calcium sensitive dye such as, but not limited to, Fluo-3 (Molecular Devices, Sunnyvale, Calif.) in FLEXstation. A positive AMPA receptor modulator, in the presence of glutamate, will result in an influx of Ca^2+ through the ion channel which can be measured indirectly through an increase in intracellular Ca2+ levels using the calcium sensitive dye Fluo-3 in FLEXstation.
HEK.GluR1(i) cells were maintained in DMEM supplemented with 10% fetaclone II, 1% non-essential amino acids and 150 μg/mL hygromycin, at 37° C./5% CO2. […]

T1 sequence (P42261 19-906 isoform P42261-2 limits assumed, species assumed): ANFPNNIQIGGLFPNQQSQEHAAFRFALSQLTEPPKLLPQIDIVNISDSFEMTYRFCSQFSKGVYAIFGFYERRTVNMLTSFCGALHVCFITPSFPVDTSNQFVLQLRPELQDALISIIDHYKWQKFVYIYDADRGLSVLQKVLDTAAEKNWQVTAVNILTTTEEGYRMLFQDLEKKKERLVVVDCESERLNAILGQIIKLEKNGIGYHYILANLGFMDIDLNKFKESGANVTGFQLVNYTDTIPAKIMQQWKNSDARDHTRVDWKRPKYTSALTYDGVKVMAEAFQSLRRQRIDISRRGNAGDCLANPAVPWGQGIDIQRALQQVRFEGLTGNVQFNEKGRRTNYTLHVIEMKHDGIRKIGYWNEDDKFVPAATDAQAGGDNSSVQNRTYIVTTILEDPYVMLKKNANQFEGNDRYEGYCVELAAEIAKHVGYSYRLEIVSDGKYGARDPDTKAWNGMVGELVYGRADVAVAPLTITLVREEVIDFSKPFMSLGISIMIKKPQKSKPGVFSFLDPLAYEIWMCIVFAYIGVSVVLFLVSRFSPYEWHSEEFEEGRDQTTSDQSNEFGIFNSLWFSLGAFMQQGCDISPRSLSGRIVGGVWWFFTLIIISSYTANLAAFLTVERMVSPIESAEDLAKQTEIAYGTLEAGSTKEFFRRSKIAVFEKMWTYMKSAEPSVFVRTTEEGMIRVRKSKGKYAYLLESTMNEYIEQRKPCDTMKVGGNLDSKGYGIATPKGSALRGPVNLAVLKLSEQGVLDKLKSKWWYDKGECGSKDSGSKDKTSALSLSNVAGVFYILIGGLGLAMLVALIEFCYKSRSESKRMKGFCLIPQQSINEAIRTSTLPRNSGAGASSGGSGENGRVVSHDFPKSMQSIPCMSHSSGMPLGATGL

Usually EC50 stands for the concentration giving half of the maximal effect. On to `O=S(=O)(N[C@H]1Cc2ccc(Cn3cc(CO)c(C(F)(F)F)n3)cc2C1)c1ccco1` [Example 18, (S)—N-(5-((4-(hydroxymethyl)-3-(trifluoromethyl)-1H-pyrazol-1-yl)methyl)-2,3-dihydro-1H-inden-2-yl)furan-2-sulfonamide], for which the EC50 came to 2500 nM.
